Test system: subjects with advanced malignancies
Assay: Phase 1 dose escalation: toxicity, safety and tolerability (DLT, MAD, RP2D, AEs)
Protocol: Subjects continued on treatment until there was disease progression, unacceptable toxicity, or the subject withdrew consent. The trial employed an accelerated titration design [16] starting at a dose of 0.33 mg/m^2 (one-sixth of the highest nontoxic dose in dogs).
the dose was doubled in sequential subjects until a DLT was observed or a subject experienced grade 2 toxicity [16]. In the case of an observed grade 2 toxicity, a second subject was enrolled at the same dose level. If the second subject also experienced a grade 2 toxicity, 2 additional subjects were accrued at that dose level for a total of 4 subjects. […] Each subject was allocated to only a single dose level of drug. Dose delay or modification was permitted based on laboratory and clinical assessment performed on the day of treatment.
Dose-limiting toxicities were determined during the first cycle for each dose level. A DLT was defined as any grade 3 or 4 hematologic toxicity lasting for at least 1 week, or as any grade 3 or 4 nonhematologic toxicity. […] Normal alkaline phosphatase level (< grade 1) at screening that rose to greater than or equal to grade 3; grade 1 or 2 alkaline phosphatase level at screening that rose to grade 4; grade 1 or 2 aspartate aminotransferase (AST) and/or alanine aminotransferase (ALT) levels at screening that doubled from baseline to become greater than or equal to grade 3; and any other abnormal nonhematology laboratory value greater than or equal to grade 3 that required medical intervention to treat, led to hospitalization, or persisted for at least 1 week were also considered DLTs.
Adverse events were graded based on the National Cancer Institute Common Terminology Criteria for Adverse Events (NCI CTCAE version 3.0) and were coded using the Medical Dictionary for Regulatory Activities (MedDRA version 13.0).

CCc1cnn2c(NCc3ccc[n+]([O-])c3)cc(N3CCCC[C@H]3CCO)nc12 [dinaciclib]
TEAE: Hyperglycemia (10 mg/m^2 (n = 3), Grade 3–4): 1 (33) n (%) | TEAE: Hyperuricemia (10 mg/m^2 (n = 3), Grade 3–4): 0 n (%) | TEAE: Hypokalemia (10 mg/m^2 (n = 3), Grade 3–4): 0 n (%) | TEAE: Hypophosphatemia (10 mg/m^2 (n = 3), Grade 3–4): 0 n (%) | TEAE: Increased ALP (10 mg/m^2 (n = 3), Grade 3–4): 0 n (%) | TEAE: Increased ALT (10 mg/m^2 (n = 3), Grade 3–4): 0 n (%) | TEAE: Increased AST (10 mg/m^2 (n = 3), Grade 3–4): 0 n (%) | TEAE: Nausea (10 mg/m^2 (n = 3), Grade 3–4): 0 n (%) | TEAE: Neutropenia (10 mg/m^2 (n = 3), Grade 3–4): 1 (33) n (%) | TEAE: Peripheral edema (10 mg/m^2 (n = 3), Grade 3–4): 0 n (%) | TEAE: Pyrexia (10 mg/m^2 (n = 3), Grade 3–4): 0 n (%) | TEAE: Subjects with any AE (10 mg/m^2 (n = 3), Grade 3–4): 1 (33) n (%) | TEAE: Urinary tract infection (10 mg/m^2 (n = 3), Grade 3–4): 0 n (%) | TEAE: Vomiting (10 mg/m^2 (n = 3), Grade 3–4): 0 n (%) | TEAE: Weight decreased (10 mg/m^2 (n = 3), Grade 3–4): 0 n (%) | TEAE: Abdominal distension (12 mg/m^2 (n = 11), All grades): 1 (9) n (%) | TEAE: Abdominal pain (12 mg/m^2 (n = 11), All grades): 0 n (%) | TEAE: Anemia (12 mg/m^2 (n = 11), All grades): 6 (55) n (%) | TEAE: Asthenia (12 mg/m^2 (n = 11), All grades): 4 (36) n (%) | TEAE: Back pain (12 mg/m^2 (n = 11), All grades): 1 (9) n (%) | TEAE: Constipation (12 mg/m^2 (n = 11), All grades): 2 (18) n (%) | TEAE: Cough (12 mg/m^2 (n = 11), All grades): 2 (18) n (%) | TEAE: Decreased appetite (12 mg/m^2 (n = 11), All grades): 2 (18) n (%) | TEAE: Dehydration (12 mg/m^2 (n = 11), All grades): 0 n (%) | TEAE: Diarrhea (12 mg/m^2 (n = 11), All grades): 1 (9) n (%) | TEAE: Dizziness (12 mg/m^2 (n = 11), All grades): 1 (9) n (%) | TEAE: Dyspnea (12 mg/m^2 (n = 11), All grades): 0 n (%) | TEAE: Fatigue (12 mg/m^2 (n = 11), All grades): 4 (36) n (%) | TEAE: Flatulence (12 mg/m^2 (n = 11), All grades): 1 (9) n (%) | TEAE: Hyperbilirubinemia (12 mg/m^2 (n = 11), All grades): 3 (27) n (%) | TEAE: Hyperglycemia (12 mg/m^2 (n = 11), All grades): 4 (36) n (%) | TEAE: Hyperuricemia (12 mg/m^2 (n = 11), All grades): 3 (27) n (%) | TEAE: Hypokalemia (12 mg/m^2 (n = 11), All grades): 2 (18) n (%) | TEAE: Hypophosphatemia (12 mg/m^2 (n = 11), All grades): 2 (18) n (%) | TEAE: Increased ALP (12 mg/m^2 (n = 11), All grades): 4 (36) n (%) | TEAE: Increased ALT (12 mg/m^2 (n = 11), All grades): 3 (27) n (%) | TEAE: Increased AST (12 mg/m^2 (n = 11), All grades): 4 (36) n (%) | TEAE: Nausea (12 mg/m^2 (n = 11), All grades): 3 (27) n (%) | TEAE: Neutropenia (12 mg/m^2 (n = 11), All grades): 4 (36) n (%) | TEAE: Peripheral edema (12 mg/m^2 (n = 11), All grades): 3 (27) n (%) | TEAE: Pyrexia (12 mg/m^2 (n = 11), All grades): 4 (36) n (%) | TEAE: Subjects with any AE (12 mg/m^2 (n = 11), All grades): 11 (100) n (%) | TEAE: Urinary tract infection (12 mg/m^2 (n = 11), All grades): 4 (36) n (%) | TEAE: Vomiting (12 mg/m^2 (n = 11), All grades): 3 (27) n (%) | TEAE: Weight decreased (12 mg/m^2 (n = 11), All grades): 0 n (%) | TEAE: Abdominal distension (12 mg/m^2 (n = 11), Grade 3–4): 0 n (%) | TEAE: Abdominal pain (12 mg/m^2 (n = 11), Grade 3–4): 0 n (%) | TEAE: Anemia (12 mg/m^2 (n = 11), Grade 3–4): 1 (9) n (%) | TEAE: Asthenia (12 mg/m^2 (n = 11), Grade 3–4): 0 n (%) | TEAE: Back pain (12 mg/m^2 (n = 11), Grade 3–4): 0 n (%) | TEAE: Constipation (12 mg/m^2 (n = 11), Grade 3–4): 0 n (%) | TEAE: Cough (12 mg/m^2 (n = 11), Grade 3–4): 0 n (%) | TEAE: Decreased appetite (12 mg/m^2 (n = 11), Grade 3–4): 0 n (%) | TEAE: Dehydration (12 mg/m^2 (n = 11), Grade 3–4): 0 n (%) | TEAE: Diarrhea (12 mg/m^2 (n = 11), Grade 3–4): 0 n (%) | TEAE: Dizziness (12 mg/m^2 (n = 11), Grade 3–4): 0 n (%) | TEAE: Dyspnea (12 mg/m^2 (n = 11), Grade 3–4): 0 n (%) | TEAE: Fatigue (12 mg/m^2 (n = 11), Grade 3–4): 0 n (%) | TEAE: Flatulence (12 mg/m^2 (n = 11), Grade 3–4): 0 n (%) | TEAE: Hyperbilirubinemia (12 mg/m^2 (n = 11), Grade 3–4): 1(9) n (%) | TEAE: Hyperglycemia (12 mg/m^2 (n = 11), Grade 3–4): 2 (18) n (%) | TEAE: Hyperuricemia (12 mg/m^2 (n = 11), Grade 3–4): 2 (18) n (%) | TEAE: Hypokalemia (12 mg/m^2 (n = 11), Grade 3–4): 1 (9) n (%) | TEAE: Hypophosphatemia (12 mg/m^2 (n = 11), Grade 3–4): 2 (18) n (%) | TEAE: Increased ALP (12 mg/m^2 (n = 11), Grade 3–4): 0 n (%) | TEAE: Increased ALT (12 mg/m^2 (n = 11), Grade 3–4): 0 n (%) | TEAE: Increased AST (12 mg/m^2 (n = 11), Grade 3–4): 1 (9) n (%) | TEAE: Nausea (12 mg/m^2 (n = 11), Grade 3–4): 0 n (%) | TEAE: Neutropenia (12 mg/m^2 (n = 11), Grade 3–4): 2 (18) n (%) | TEAE: Peripheral edema (12 mg/m^2 (n = 11), Grade 3–4): 0 n (%) | TEAE: Pyrexia (12 mg/m^2 (n = 11), Grade 3–4): 0 n (%) | TEAE: Subjects with any AE (12 mg/m^2 (n = 11), Grade 3–4): 8 (73) n (%) | TEAE: Urinary tract infection (12 mg/m^2 (n = 11), Grade 3–4): 0 n (%) | TEAE: Vomiting (12 mg/m^2 (n = 11), Grade 3–4): 0 n (%) | TEAE: Weight decreased (12 mg/m^2 (n = 11), Grade 3–4): 0 n (%) | TEAE: Abdominal distension (14 mg/m^2 (n = 5), All grades): 0 n (%) | TEAE: Abdominal pain (14 mg/m^2 (n = 5), All grades): 0 n (%) | TEAE: Anemia (14 mg/m^2 (n = 5), All grades): 2 (40) n (%) | TEAE: Asthenia (14 mg/m^2 (n = 5), All grades): 1 (20) n (%) | TEAE: Back pain (14 mg/m^2 (n = 5), All grades): 1 (20) n (%) | TEAE: Constipation (14 mg/m^2 (n = 5), All grades): 1 (20) n (%) | TEAE: Cough (14 mg/m^2 (n = 5), All grades): 0 n (%) | TEAE: Decreased appetite (14 mg/m^2 (n = 5), All grades): 1 (20) n (%) | TEAE: Dehydration (14 mg/m^2 (n = 5), All grades): 3 (60) n (%) | TEAE: Diarrhea (14 mg/m^2 (n = 5), All grades): 0 n (%) | TEAE: Dizziness (14 mg/m^2 (n = 5), All grades): 1 (20) n (%) | TEAE: Dyspnea (14 mg/m^2 (n = 5), All grades): 1 (20) n (%) | TEAE: Fatigue (14 mg/m^2 (n = 5), All grades): 0 n (%) | TEAE: Flatulence (14 mg/m^2 (n = 5), All grades): 0 n (%) | TEAE: Hyperbilirubinemia (14 mg/m^2 (n = 5), All grades): 2 (40) n (%) | TEAE: Hyperglycemia (14 mg/m^2 (n = 5), All grades): 1 (20) n (%) | TEAE: Hyperuricemia (14 mg/m^2 (n = 5), All grades): 1 (20) n (%) | TEAE: Hypokalemia (14 mg/m^2 (n = 5), All grades): 0 n (%) | TEAE: Hypophosphatemia (14 mg/m^2 (n = 5), All grades): 0 n (%) | TEAE: Increased ALP (14 mg/m^2 (n = 5), All grades): 1 (20) n (%) | TEAE: Increased ALT (14 mg/m^2 (n = 5), All grades): 0 n (%) | TEAE: Increased AST (14 mg/m^2 (n = 5), All grades): 1 (20) n (%) | TEAE: Nausea (14 mg/m^2 (n = 5), All grades): 4 (80) n (%) | TEAE: Neutropenia (14 mg/m^2 (n = 5), All grades): 3 (60) n (%) | TEAE: Peripheral edema (14 mg/m^2 (n = 5), All grades): 0 n (%) | TEAE: Pyrexia (14 mg/m^2 (n = 5), All grades): 0 n (%) | TEAE: Subjects with any AE (14 mg/m^2 (n = 5), All grades): 5 (100) n (%) | TEAE: Urinary tract infection (14 mg/m^2 (n = 5), All grades): 0 n (%) | TEAE: Vomiting (14 mg/m^2 (n = 5), All grades): 2 (40) n (%) | TEAE: Weight decreased (14 mg/m^2 (n = 5), All grades): 0 n (%)

Source: paper PMC3853718 (Journal of Translational Medicine, 2013)
